# Target: T1, TbCLK1 (Trypanosoma brucei, UniProt Q382U0)
# T1 construct: gene Tb11.01.4230; full-length, recombinant from E. coli (pET100)
# Test: in vitro kinase assay (γ-32P-ATP, myelin basic protein), […] min pre-incubation with […] ATP; also target engagement in intact parasites by competition with probe […]
# Format: biochemical
# T1 sequence (Q382U0 entry or part of it): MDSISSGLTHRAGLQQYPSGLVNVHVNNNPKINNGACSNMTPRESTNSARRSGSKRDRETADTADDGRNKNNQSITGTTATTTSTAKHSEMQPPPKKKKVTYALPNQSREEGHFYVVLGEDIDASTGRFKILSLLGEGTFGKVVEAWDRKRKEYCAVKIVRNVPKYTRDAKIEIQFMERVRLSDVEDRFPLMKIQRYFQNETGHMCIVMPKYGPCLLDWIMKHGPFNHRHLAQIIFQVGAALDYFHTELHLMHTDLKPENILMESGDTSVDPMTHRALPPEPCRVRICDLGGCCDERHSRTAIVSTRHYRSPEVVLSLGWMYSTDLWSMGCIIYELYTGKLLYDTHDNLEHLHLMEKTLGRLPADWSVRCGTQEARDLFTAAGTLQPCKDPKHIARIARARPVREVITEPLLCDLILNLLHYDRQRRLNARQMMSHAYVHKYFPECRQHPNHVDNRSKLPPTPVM
smiles,measurement,value
"COc1cc(O)c2c(c1)[C@H]1O[C@@H]1C[C@H](O)[C@H](O)C(=O)/C=C\C[C@H](C)OC2=O [compound 1, hypothemycin]",IC50,150 nM

# Source: publication PMC3707081, “Hypothemicin, a fungal natural product, identifies therapeutic targets in Trypanosoma brucei” (eLife, 2013)
